Earlier results in patent EP4473960A1, “VACCINE FORMULATION COMPRISING A SURFACTANT THAT DOES NOT COMPRISE AN ESTER BOND” (Vaxxinova Nederland BV, priority 2023, dated 2024).
Like-named read-outs stand apart in the source and are kept apart here.

[1] = Table 2, surfactants without ester bond
[2] = Table 3A, HLB values of surfactants discussed

Substance	HLB [1]	HLB [2]	Hydrophilic-Lipophilic Balance (HLB)
Polyoxyethylen (2) cetylether [Brij 52]	5,3	5,3	
Polyoxyethylen (2) oleylether [Brij 92]	4,9	4,9	
Polyoxyethylen (2) stearylether [Brij 72]	4,9	4,9	
Polyoxyethylen (4) laurylether [Brij 30]	9,7	9,7	
Polyoxyethylen (6) cetylstearylether [Cremophor A6]	10-12	10 - 12	
Polyoxyethylen (9) laurylether [Thesit]	11.2		
Polyoxyethylen (10) monodecylether	14.6		
Polyoxyethylen (10) tridecylether	13.7		
Polyoxyethylen (20) cetylstearylether [Cremophor A20]	14-16		
Polyoxyethylen (25) cetylstearylether [Cremophor A25]	15-17	15-17	
Sorbitan monooleate [Span 80]		4,3	4,3
Sorbitan palmitate [Span 40]		6.7	
Sorbitan stearate [Span 60]		4,7	
Sorbitan tristearate [Span 65]		2,2	
